Measurements as given in PubChem BioAssay (NCI).
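Results reflect a 48-hour exposure of cells in 96-well plates to compound at five concentrations. TGI is the concentration that stops growth completely.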

What was measured:
Experiment in all cases: DTP human tumour cell line panel, 48 h
[1] = test system: 786-0 renal
[2] = test system: A498 renal
[3] = test system: A549 NSCLC
[4] = test system: ACHN renal
[5] = test system: BT-549 breast
[6] = test system: CAKI-1 renal
[7] = test system: COLO 205 colon
[8] = test system: DU-145 prostate
[9] = test system: EKVX NSCLC
[10] = test system: HCC-2998 colon
[11] = test system: HCT-116 colon
[12] = test system: HCT-15 colon
[13] = test system: HOP-62 NSCLC
[14] = test system: HOP-92 NSCLC
[15] = test system: HS 578T breast
[16] = test system: HT29 colon
[17] = test system: IGROV1 ovarian
[18] = test system: KM12 colon
[19] = test system: LOX IMVI melanoma
[20] = test system: M14 melanoma
[21] = test system: MALME-3M melanoma
[22] = test system: MCF7 breast
[23] = test system: MDA-MB-231 breast
[24] = test system: MDA-MB-435
[25] = test system: MDA-N
[26] = test system: MOLT-4 leukemia
[27] = test system: NCI-H226 lung
[28] = test system: NCI-H23 lung
[29] = test system: NCI-H460 lung
[30] = test system: NCI-H522 lung
[31] = test system: NCI/ADR-RES ovarian
[32] = test system: OVCAR-3 ovarian
[33] = test system: OVCAR-4 ovarian
[34] = test system: OVCAR-5 ovarian
[35] = test system: OVCAR-8 ovarian
[36] = test system: PC-3 prostate
[37] = test system: RXF 393 renal
[38] = test system: SF-268 CNS
[39] = test system: SF-295 CNS
[40] = test system: SF-539 CNS
[41] = test system: SK-MEL-2 melanoma
[42] = test system: SK-MEL-28 melanoma
[43] = test system: SK-MEL-5 melanoma
[44] = test system: SK-OV-3 ovarian
[45] = test system: SN12C renal
[46] = test system: SNB-19 CNS
[47] = test system: SNB-75 CNS
[48] = test system: SW-620 colon
[49] = test system: TK-10 renal
[50] = test system: U251 CNS
[51] = test system: UACC-257 melanoma
[52] = test system: UO-31 renal
[53] = test system: CCRF-CEM leukemia
[54] = test system: K-562 leukemia
[55] = test system: RPMI-8226 leukemia
[56] = test system: SR leukemia
[57] = test system: T-47D breast
[58] = test system: UACC-62 melanoma
[59] = test system: HL-60(TB) leukemia

CC(C)CCC/C(CBr)=C(\Cl)CCl
TGI [1]: 3.67 µM
TGI [2]: 35.2 µM
TGI [3]: 31 µM
TGI [4]: 23.3 µM
TGI [5]: 3.52 µM
TGI [6]: 9.35 µM
TGI [7]: 3.54 µM
TGI [8]: 17.2 µM
TGI [9]: 30.3 µM
TGI [10]: 21 µM
TGI [11]: 7.03 µM
TGI [12]: 11.4 µM
TGI [13]: 20.8 µM
TGI [14]: 4.54 µM
TGI [15]: 7.46 µM
TGI [16]: 5.97 µM
TGI [17]: 4.05 µM
TGI [18]: 5.51 µM
TGI [19]: 0.542 µM
TGI [20]: 4.23 µM
TGI [21]: 7.88 µM
TGI [22]: 12.9 µM
TGI [23]: 8.34 µM
TGI [24]: 6.25 µM
TGI [25]: 3.91 µM
TGI [26]: 2.88 µM
TGI [27]: 25.7 µM
TGI [28]: 8.11 µM
TGI [29]: 18.5 µM
TGI [30]: 0.409 µM
TGI [31]: 10.7 µM
TGI [32]: 6.73 µM
TGI [33]: 2.93 µM
TGI [34]: 29.1 µM
TGI [35]: 3.86 µM
TGI [36]: 13.2 µM
TGI [37]: 8.17 µM
TGI [38]: 9.89 µM
TGI [39]: 26.5 µM
TGI [40]: 23.6 µM
TGI [41]: 2.97 µM
TGI [42]: 5.19 µM
TGI [43]: 6 µM
TGI [44]: 22.3 µM
TGI [45]: 8.85 µM
TGI [46]: 28.6 µM
TGI [47]: 4.71 µM
TGI [48]: 3.07 µM
TGI [49]: 3.72 µM
TGI [50]: 13.4 µM
TGI [51]: 4.78 µM
TGI [52]: 8.4 µM

O=C(O)c1ccc(Nc2nc3ccccc3nc2C(=O)O)cc1
TGI [1]: > 100 µM
TGI [3]: > 100 µM
TGI [4]: > 100 µM
TGI [5]: > 100 µM
TGI [6]: > 100 µM
TGI [53]: > 100 µM
TGI [7]: > 100 µM
TGI [8]: > 100 µM
TGI [9]: > 100 µM
TGI [10]: > 100 µM
TGI [11]: > 100 µM
TGI [13]: > 100 µM
TGI [14]: > 100 µM
TGI [15]: > 100 µM
TGI [16]: > 100 µM
TGI [17]: > 100 µM
TGI [54]: > 100 µM
TGI [18]: > 100 µM
TGI [20]: > 100 µM
TGI [21]: > 100 µM
TGI [22]: > 100 µM
TGI [23]: > 100 µM
TGI [24]: > 100 µM
TGI [25]: > 100 µM
TGI [26]: > 100 µM
TGI [28]: > 100 µM
TGI [29]: > 100 µM
TGI [30]: > 100 µM
TGI [31]: > 100 µM
TGI [32]: > 100 µM
TGI [33]: > 100 µM
TGI [34]: > 100 µM
TGI [35]: > 100 µM
TGI [55]: > 100 µM
TGI [38]: > 100 µM
TGI [39]: > 100 µM
TGI [40]: > 100 µM
TGI [41]: > 100 µM
TGI [42]: > 100 µM
TGI [43]: > 100 µM
TGI [44]: > 100 µM
TGI [45]: > 100 µM
TGI [46]: > 100 µM
TGI [47]: > 100 µM
TGI [56]: > 100 µM
TGI [57]: > 100 µM
TGI [49]: > 100 µM
TGI [50]: > 100 µM
TGI [51]: > 100 µM
TGI [58]: > 100 µM
TGI [52]: > 100 µM

COc1ccc2c(c1)-c1oc3ccccc3c(=O)c1CO2
TGI [1]: > 100 µM
TGI [3]: > 100 µM
TGI [4]: > 100 µM
TGI [5]: 96.8 µM
TGI [6]: 50.6 µM
TGI [53]: > 100 µM
TGI [7]: > 100 µM
TGI [8]: > 100 µM
TGI [9]: > 100 µM
TGI [10]: > 100 µM
TGI [11]: > 100 µM
TGI [12]: > 100 µM
TGI [13]: > 100 µM
TGI [16]: > 100 µM
TGI [17]: > 100 µM
TGI [54]: > 100 µM
TGI [18]: > 100 µM
TGI [19]: 44.5 µM
TGI [20]: > 100 µM
TGI [21]: > 100 µM
TGI [22]: > 100 µM
TGI [23]: 90.8 µM
TGI [24]: > 100 µM
TGI [25]: 78.1 µM
TGI [26]: > 100 µM
TGI [27]: > 100 µM
TGI [28]: > 100 µM
TGI [30]: > 100 µM
TGI [31]: > 100 µM
TGI [32]: > 100 µM
TGI [34]: > 100 µM
TGI [35]: > 100 µM
TGI [36]: > 100 µM
TGI [55]: > 100 µM
TGI [38]: > 100 µM
TGI [39]: > 100 µM
TGI [40]: > 100 µM
TGI [41]: 83.3 µM
TGI [43]: 36.2 µM
TGI [44]: > 100 µM
TGI [45]: 77.9 µM
TGI [47]: 73 µM
TGI [48]: > 100 µM
TGI [57]: 68.5 µM
TGI [49]: > 100 µM
TGI [50]: > 100 µM
TGI [51]: 99.3 µM
TGI [58]: > 100 µM
TGI [52]: 88.4 µM

N#C[C@H]1Nc2ccccc2[C@@H](O)C1O (stereo not given in full)
TGI [1]: > 100 µM
TGI [3]: > 100 µM
TGI [4]: > 100 µM
TGI [6]: > 100 µM
TGI [53]: > 100 µM
TGI [7]: > 100 µM
TGI [8]: > 100 µM
TGI [9]: > 100 µM
TGI [10]: > 100 µM
TGI [11]: > 100 µM
TGI [12]: > 100 µM
TGI [59]: > 100 µM
TGI [13]: > 100 µM
TGI [14]: > 100 µM
TGI [15]: > 100 µM
TGI [16]: > 100 µM
TGI [17]: > 100 µM
TGI [54]: > 100 µM
TGI [18]: > 100 µM
TGI [19]: > 100 µM
TGI [20]: > 100 µM
TGI [21]: > 100 µM
TGI [22]: > 100 µM
TGI [23]: > 100 µM
TGI [24]: > 100 µM
TGI [25]: > 100 µM
TGI [26]: > 100 µM
TGI [28]: > 100 µM
TGI [29]: > 100 µM
TGI [31]: > 100 µM
TGI [32]: > 100 µM
TGI [33]: > 100 µM
TGI [34]: > 100 µM
TGI [35]: > 100 µM
TGI [36]: > 100 µM
TGI [55]: > 100 µM
TGI [37]: > 100 µM
TGI [38]: > 100 µM
TGI [39]: > 100 µM
TGI [40]: > 100 µM
TGI [41]: > 100 µM
TGI [42]: > 100 µM
TGI [43]: > 100 µM
TGI [44]: > 100 µM
TGI [45]: > 100 µM
TGI [47]: > 100 µM
TGI [56]: > 100 µM
TGI [48]: > 100 µM
TGI [57]: > 100 µM
TGI [49]: > 100 µM
TGI [50]: > 100 µM
TGI [51]: > 100 µM
TGI [58]: > 100 µM
